Measurements published in US10245240B2, “Treatment of prostate carcinoma” (Pellficure Pharmaceuticals, Inc., priority 2010, dated 2019).
pIC50: −log10 of the molar value.

Key:
[1] = system: LNCaP hormone-sensitive human prostate cancer cells; assay: Dose response plumbagin in human LNCaP cells, cell counting in absence of DHT; type: cell-based; conditions: no DHT; for % control / cell number/20 mean / cell number/20 trial 1 / cell number/20 trial 2 / cell number/20 trial 3 / cell number/20 trial 4: 24 hours
Experimental: LNCaP hormone-sensitive human prostate cancer cells were placed in androgen withdrawal medium in the absence of DHT (dihydrotestosterone). The absence of DHT simulates surgical or chemical castration. The androgen withdrawal medium was phenol-red free DMEM high-glucose containing 10% charcoal-treated Fetal Bovine Serum.
Plumbagin was added at the indicated concentrations in Table 6 for 24 hours. Cells were trypsinized and counted using a Cell Coulter counter Multisizer II, which excludes debris. The results in Table 6 represent cell numbers as percent of control (in which the number of cells in the absence of drug is 100%). FIG. 8 illustrates the effect of plumbagin in human LNCaP cells.

PTEN-P2/GFP tumor = assay: In vivo effect of plumbagin added two weeks after castration, pseudo-orthotopic chamber model (Example 6); design: species or system nude mice; conditions: daily plumbagin ip 2 mg/kg, from two weeks after castration
Experimental: Intravital microscopy: Fluorescence microscopy is performed using a Mikron Instrument Microscope equipped with epi-illuminator and video-triggered stroboscopic illumination from a xenon arc (MV-7600, EG&G). A silicon intensified target camera (SIT68, Dage-MTI) is attached to the microscope. A Hamamatsu image processor (Argus 20) with firmware version 2.50 (Hamamatsu Photonic System) is used for image enhancement and for the capture of images to a computer. A Zeiss Plan Neofluar 1.25×/0.035 objective is used to obtain an over-view of the chamber and to determine tumor size. A Zeiss A-Plan 10×/0.25 objective is used to capture images for calculation of vascular parameters. A Zeiss Achroplan 20×/0.5 W objective is used to capture images for calculation of mitotic and apoptotic indices. Our system permits evaluation of the following parameters.
Mitotic and Apoptotic Indices: At each time point, two peripheral and two central ×20 fields of the tumor are captured with a FITC filter and an integrated frame grabber. Only mitotic figures in metaphase-telophase (MI) are included in the mitotic indices to exclude the potential artifact of nuclear membrane distortion. Apoptotic/Pyknotic nuclei are defined as H2B-GFP labeled nuclei with a cross sectional area <30 μm^2. Nuclear karyorrhexis (NK), easily distinguishable by the vesicular nuclear condensation and brightness of H2B-GFP, is included within this apoptotic indices.
Platinum chambers were placed in the dorsal skinfold of nude mice by surgery. Two days later, minced prostate tissue from BalbC mice (syngeneic) was grafted into the chambers and allowed to vascularize for 7 to 10 days. Small tumor cells spheroids were implanted into each chamber. Tumor cells PTEN-P2 stably transfected with H2B-GFP fusion protein (PTEN-P2/GFP) were used in these experiments. The animals were surgically castrated about three weeks after implantation to inhibit androgen production. Surgical castration induces androgen deprivation, and is known in the art to effectively mimic clinical hormone therapy. Two weeks after castration, the mice were treated daily with plumbagin at 2 mg/kg ip.

fibrosarcomas = conditions: cited from earlier work
hepatoma = conditions: in vivo; cited from earlier work
[2] = system: hormone-refractory prostate cancer; conditions: Aziz et al., Cancer Res. 2008; cited from earlier work
prostate carcinoma cells = conditions: 5 umol/L; cited from earlier work
[3] = system: PTEN-P2/GFP prostate cancer cells; assay: Effect of naphthoquinone analogs on PTEN-P2/GFP cell proliferation (CellTiter96 formazan-based viability assay); conditions: Mus musculus, 24 h
Experimental: Cell culture: PTEN-P2/GFP are cells that stably express histone H2B-GFP fusion protein.
Cells are grown in DMEM medium containing 10% FBS, 2 mM L-glutamine, 100 U/ml penicillin/100 μg/ml streptomycin, insulin-selenium-transferrin (5 μg/ml insulin), and DHT 10^−8 M final. Androgen withdrawal is achieved by keeping the cells in phenol red-free DMEM medium containing 10% charcoal-treated FBS and the same supplements as in the normal medium except for DHT. Cells are maintained in a humidified incubator at 37° C. and 5% CO2. G418 (100 μg/ml) is added to maintain stable expression of H2B-GFP.
PTEN-P2/GFP prostate cancer cells were plated at a density of 8000 cells/well in 96-well plates (triplicates) in growing medium containing 10% Fetal Bovine Serum and DHT. The next day, increasing concentrations of a naphthoquinone analog (diluted from 10 mM DMSO stock solutions) were incubated for 24 hrs. Cell viability was determined by the formazan-based cytotoxicity assay “CellTiter96Aquaeous nonradioactive proliferation assay” (Promega).

CC1=CC(=O)c2c(O)cccc2C1=O [Plumbagin, 5-hydroxy-2-methylnaphthalene-1,4-dione]
% control ([1]; 0.5 μM plumbagin): 84.13% | cell number/20 mean ([1]; 0.5 μM plumbagin): 6335 | cell number/20 trial 1 ([1]; 0.5 μM plumbagin): 6422 | cell number/20 trial 2 ([1]; 0.5 μM plumbagin): 5989 | cell number/20 trial 3 ([1]; 0.5 μM plumbagin): 6453 | cell number/20 trial 4 ([1]; 0.5 μM plumbagin): 6475 | % control ([1]; 1 μM plumbagin): 90.95% | cell number/20 mean ([1]; 1 μM plumbagin): 6849 | cell number/20 trial 1 ([1]; 1 μM plumbagin): 6997 | cell number/20 trial 2 ([1]; 1 μM plumbagin): 7139 | cell number/20 trial 3 ([1]; 1 μM plumbagin): 6769 | cell number/20 trial 4 ([1]; 1 μM plumbagin): 6490 | % control ([1]; 2 μM plumbagin): 66.23% | cell number/20 mean ([1]; 2 μM plumbagin): 4987 | cell number/20 trial 1 ([1]; 2 μM plumbagin): 5324 | cell number/20 trial 2 ([1]; 2 μM plumbagin): 5282 | cell number/20 trial 3 ([1]; 2 μM plumbagin): 4522 | cell number/20 trial 4 ([1]; 2 μM plumbagin): 4821 | % control ([1]; 4 μM plumbagin): 42.21% | cell number/20 mean ([1]; 4 μM plumbagin): 3179 | cell number/20 trial 1 ([1]; 4 μM plumbagin): 3005 | cell number/20 trial 2 ([1]; 4 μM plumbagin): 3082 | cell number/20 trial 3 ([1]; 4 μM plumbagin): 3327 | cell number/20 trial 4 ([1]; 4 μM plumbagin): 3300 | % control ([1]; 6 μM plumbagin): 18.50% | cell number/20 mean ([1]; 6 μM plumbagin): 1393 | cell number/20 trial 1 ([1]; 6 μM plumbagin): 1396 | cell number/20 trial 2 ([1]; 6 μM plumbagin): 1500 | cell number/20 trial 3 ([1]; 6 μM plumbagin): 1323 | cell number/20 trial 4 ([1]; 6 μM plumbagin): 1352 | % control ([1]; 8 μM plumbagin): 3.93% | cell number/20 mean ([1]; 8 μM plumbagin): 296 | cell number/20 trial 1 ([1]; 8 μM plumbagin): 330 | cell number/20 trial 2 ([1]; 8 μM plumbagin): 283 | cell number/20 trial 3 ([1]; 8 μM plumbagin): 284 | cell number/20 trial 4 ([1]; 8 μM plumbagin): 287 | efficiency of plumbagin with simulated castration versus castration alone ([1]; in vitro, LNCaP cells): more efficient than treatment castration alone | apoptosis (AP) in tumor (PTEN-P2/GFP tumor): increasing apoptosis | efficiency of combination of plumbagin with castration versus castration alone (PTEN-P2/GFP tumor): more efficient in vivo than castration alone | mitosis (MI) in tumor (PTEN-P2/GFP tumor): mitosis increased | tumor size, castration with plumbagin (PTEN-P2/GFP tumor): significant decreases in tumor size | ED50 (fibrosarcomas): 0.75 mg/kg body weight | effect on hepatoma (hepatoma): induced regression of hepatoma | effect on growth and invasion of hormone-refractory prostate cancer [2]: inhibited growth and invasion of hormone-refractory prostate cancer | expression of PKCq, PI3K, AKT, activation of AP-1, NF-κB, Stat3 (prostate carcinoma cells): inhibit expression of multiple molecular targets | pIC50 [3]: 5.34 | viability at 1 µM ([3]; 1 μM, medium with 10% FBS and DHT): 94.6% | viability at 2 µM ([3]; 2 μM, medium with 10% FBS and DHT): 90.9% | viability at 3 µM ([3]; 3 μM, medium with 10% FBS and DHT): 88.9% | viability at 4 µM ([3]; 4 μM, medium with 10% FBS and DHT): 73% | viability at 5 µM ([3]; 5 μM, medium with 10% FBS and DHT): 32.9% | viability at 7 µM ([3]; 7 μM, medium with 10% FBS and DHT): 0.4% | viability at 10 µM ([3]; 10 μM, medium with 10% FBS and DHT): 0.6%
